# Assay results taken from US7498404B2, “Compositions, methods and uses for a novel family of peptides” (priority 2004, dated 2009).
# Marks after values point to notes of the source that are not given here.
# What was measured:
# [1] = test system: E. coli; assay: MIC against E. coli; format: cell-based
# Description: (§1) MIC determination assays. Staphylococcal aureus was grown to mid-log phase in LB at 37° C., and diluted by 500-fold with fresh LB and dispensed into 96-well micro-titer plates. Different concentrations of peptides were added, and the micro-titer plates were incubated at 37° C. with shaking. A minimal inhibition concentration (MIC) was determined as the lowest peptide concentration that produced a clear well. All experiments were performed in triplicates, and highly consistent MICs were obtained.
# (§2) For Gram (−) the following were the antimicrobial activities observed: E. coli: MIC>20 microgram/ml; Pseudomonas and Salmonella: MIC>100 microgram/ml.
# [2] = test system: straight run broilers; assay: Growth promoting Studies 3-1 and 3-2, pelleted starter feed, batteries; format: in vivo, chicken
# Source text: Eight (8) study repetitions per treatment were used, again with 4 birds per pen.
# [3] = test system: Broiler Chicken; assay: Growth promoting Studies 1-1 and 1-2 (21-day battery study); format: in vivo
# [4] = test system: Pseudomonas; assay: MIC against Pseudomonas; format: cell-based
# Description: as §1, §2
# [5] = format: physicochemical
# [6] = Broiler floor pen trial, 42 days, natural colibacillosis challenge; format: in vivo, chicken
# Description: A broiler floor pen trial to compare the performance of a new anti-microbial designated for this project as BT1583 alone and in combination with the widely used coccidiostat monensin (MON) to MON fed alone, MON in combination with the also widely used antimicrobial Bacitracin MD (BMD) and BMD alone.
# The following levels of each treatment were evaluated:
# The study design included 10 pens per treatment and 40 birds per pen housed on day of hatch. Two basal corn-soy based diets of decreasing protein (approximately 23 to 20%) and increasing metabolizable energy (approximately 1400 to 1455 kcal/lb) were used from Day 0 to 21 (starter feed) and Days 22 to 42 (grower feed), respectively. Treatment premixes were measured and blended into diets at required levels. Between days 0 and 21 mortality was less than 1% with all birds growing optimally and of high health across all groups.
# Beginning on study day 22, the study director modulated house temperature and air flow to mimic industry conditions conducive to outbreaks of colibacillosis within naive broiler flocks. This was done to stimulate a natural challenge for this study. Mortality climbed to a house average of approximately 10% by Day 42. A majority of these deaths occurred in groups not receiving BT1583 or MON. Lesions were consistent with those of colibacillosis (air sac, pneumonia, peri-hepatitis, peri-carditis and extreme morbidity). All mortality was documented (weight at death and post-mortem observations). All birds and feeds were weighed at 42 days. All remaining birds were euthanized on Day 42 by asphyxiation with the carcasses submitted for rendering.
# The following variables were tested: Response Variables: Gain Per Bird, Feed Per Gain, Mortality (%), Adjusted Feed Per Gain. F test from One Way ANOVA with one blocking factor=location, at Day 42 using 0.05 level of significance.
# All Response Variables: LSD T-test procedure for pair-wise comparisons with Type 1 error of means when ANOVA F ratio is significant, overall significance level of 0.05 used. Lines below means (see Table 30, below) indicate groups with insignificant differences in means.
# Adjusted Feed/Gain: The total weight of mortality in each pen was added to the final live weight, that value reduced by subtracting the initial weight and then dividing that value into the Total feed consumed to calculate the Adjusted Feed/Gain.
# [7] = test system: Broiler Chicken; assay: Growth promoting Studies 4-1 and 4-2 with direct coccidial challenge; format: in vivo
# [8] = test system: S. cerevisiae; assay: Antifungal MIC; format: cell-based
# [9] = test system: straight run broilers; assay: Growth promoting Studies 2-1 and 2-2, mash feed, batteries; format: in vivo, chicken
# Description: Briefly, the peptide was used in a semi-purified form to study the growth and feed conversion of […] old straight run broilers in batteries (Studies 2-1 and 2-2). Two amounts were tested against a feed control, peptide at 6 ppm and peptide at 12 ppm, 12 repetitions were carried out per treatment with 4 birds per pen. The diet used in the study was as follows.
# [10] = biological target: T1, carboxypeptidase Y (Saccharomyces cerevisiae, UniProt P00729)
# T1 sequence (P00729 112-532): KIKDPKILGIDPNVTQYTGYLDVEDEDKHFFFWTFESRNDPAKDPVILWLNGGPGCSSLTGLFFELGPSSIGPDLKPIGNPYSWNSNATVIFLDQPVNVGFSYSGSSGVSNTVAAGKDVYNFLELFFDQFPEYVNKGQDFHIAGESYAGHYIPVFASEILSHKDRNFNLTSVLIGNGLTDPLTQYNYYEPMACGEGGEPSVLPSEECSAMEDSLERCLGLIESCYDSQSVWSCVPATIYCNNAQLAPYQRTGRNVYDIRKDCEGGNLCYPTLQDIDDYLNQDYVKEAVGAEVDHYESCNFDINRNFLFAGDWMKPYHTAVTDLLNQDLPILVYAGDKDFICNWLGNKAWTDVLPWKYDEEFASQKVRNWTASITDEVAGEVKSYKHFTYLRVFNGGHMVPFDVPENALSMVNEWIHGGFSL
# [11] = test system: Salmonella; assay: MIC against Salmonella; format: cell-based
# Description: as §1, §2
# [12] = test system: Tetrahymena; assay: Anti-protozoal MIC; format: cell-based
# [13] = test system: food-producing animals; assay: Growth promotion in food-producing animals (overall statement); format: in vivo, chicken
# Source text: Furthermore, unlike conventional antibiotics, the present invention may target the bacterial membrane, and there is currently not a drug target that can be altered with one or two mutations to allow development of drug resistance. […] Alternatively, but in no way limiting the present invention, the present invention may be used as an animal-use only antibiotic for bacterial infections. Also, to date, there has been no observed decrease in the growth promoting activity of the peptide.
# [14] = test system: Gram-positive bacteria; assay: MIC against Gram-positive bacteria; format: cell-based; settings: most Gram (+)
# Description: as §1, §2
# [15] = Study 3-2, 12 ppm with Coban (vs Coban alone)
# [16] = MON 99 ppm, BT1583 12 ppm, BMD 55 ppm, alone or combined
# [17] = Study 4-1, 24 ppm with direct coccidial challenge
# [18] = Study 4-2, 48 ppm with direct coccidial challenge
substance,measurement,setting,value
Me2Bmt-L-dO-I-V-V-dK-V-dL-K-dY-L-Vol [BT1583],MIC,[1],> 20 microgram/ml
same,Additional weight gain (%),"[2]; Study 3-1, 12 ppm",16%
same,Feed conversion improvement (point),"[2]; Study 3-1, 12 ppm",9 point
same,Additional weight gain (%),[2]; [15],5.4%
same,Feed conversion improvement (point),[2]; [15],9 point
same,"20-day cumulative weight gain, Mean","[2]; Table 18, BT1583 12 ppm, BMD 50 ppm, COB 90 ppm, alone or combined",831.7396
same,"21-day cumulative weight gain, estimated marginal Mean","[2]; Table 20, BT1583 12 ppm, BMD 50 ppm, COB 90 ppm, alone or combined",831.740
same,"21-day cumulative weight gain, Duncan homogeneous subsets","[2]; Table 21, BT1583 12 ppm, BMD 50 ppm, COB 90 ppm, alone or combined",831.7396
same,"20-day cumulative feed conversion rate, Mean","[2]; Table 22, BT1583 12 ppm, BMD 50 ppm, COB 90 ppm, alone or combined",1.3308
same,"21-day cumulative feed conversion rate, estimated marginal Mean","[2]; Table 24, BT1583 12 ppm, BMD 50 ppm, COB 90 ppm, alone or combined",1.331
same,"20-day cumulative feed conversion rate, Duncan homogeneous subsets","[2]; Table 25, BT1583 12 ppm, BMD 50 ppm, COB 90 ppm, alone or combined",1.3308
same,Additional weight gain (%),"[3]; Study 1-1, 10 ppm",17%
same,Feed conversion improvement (point),"[3]; Study 1-1, 10 ppm",7 point
same,Additional weight gain (%),"[3]; Study 1-2, 30 ppm",17%
same,Feed conversion improvement (point),"[3]; Study 1-2, 30 ppm",8 point
same,MIC,[4],> 100 microgram/ml
same,only known in vitro method to inactivate,[5],pH 1.0 plus 100 °C overnight
same,efficacy against colibacillosis,"[6]; 3 to 4 week old naive broiler chickens, simulated commercial conditions",highly effective
same,feed/gain advantage over monensin and BMD fed alone and in combination,[6]; Day 42,≥ 10 point
same,weight gain advantage over monensin and BMD fed alone and in combination,[6]; Day 42,≥ 20 point
same,Day 42 Feed/Gain,[6]; [16],1.722^ab
same,Day 42 Gain/Bird,[6]; [16],4.333^ab lb
same,Day 42 Mortality (%),"[6]; acute and chronic colibacillosis, MON 99 ppm, BT1583 12 ppm, BMD 55 ppm",2.75^a %
same,Day 42 Adjusted Feed/Gain,"[6]; adjusted for mortality weight, MON 99 ppm, BT1583 12 ppm, BMD 55 ppm",1.704^ab
same,Additional weight gain (%),[7]; [17],7.1%
same,Feed conversion improvement (point),[7]; [17],13 point
same,Additional weight gain (%),[7]; [18],9.3%
same,Feed conversion improvement (point),[7]; [18],17 point
same,MIC,[8],50 microgram/ml
same,Additional weight gain (%),"[9]; Study 2-1, 6 ppm",6.7%
same,Feed conversion improvement (point),"[9]; Study 2-1, 6 ppm",9 point
same,Additional weight gain (%),"[9]; Study 2-2, 12 ppm",11%
same,Feed conversion improvement (point),"[9]; Study 2-2, 12 ppm",10 point
same,"20-day cumulative weight gain, Mean","[9]; Table 9, 6 ppm in feed",591.9750
same,"20-day cumulative weight gain, Mean","[9]; Table 9, 12 ppm in feed",618.9340
same,"20-day cumulative weight gain, estimated marginal Mean","[9]; Table 11, 6 ppm in feed",591.975
same,"20-day cumulative weight gain, estimated marginal Mean","[9]; Table 11, 12 ppm in feed",618.934
same,"20-day cumulative weight gain, Duncan homogeneous subsets","[9]; Table 12, 6 ppm in feed",591.9750
same,"20-day cumulative weight gain, Duncan homogeneous subsets","[9]; Table 12, 12 ppm in feed",618.9340
same,"20-day cumulative feed conversion rate, Mean","[9]; Table 13, 6 ppm in feed",1.5065
same,"20-day cumulative feed conversion rate, Mean","[9]; Table 13, 12 ppm in feed",1.4959
same,"20-day cumulative feed conversion rate, estimated marginal Mean","[9]; Table 15, 6 ppm in feed",1.506
same,"20-day cumulative feed conversion rate, estimated marginal Mean","[9]; Table 15, 12 ppm in feed",1.496
same,"20-day cumulative feed conversion rate, Duncan homogeneous subsets","[9]; Table 16, 6 ppm in feed",1.5065
same,"20-day cumulative feed conversion rate, Duncan homogeneous subsets","[9]; Table 16, 12 ppm in feed",1.4959
same,cleavage by carboxypeptidase Y,[10],resistant
same,MIC,[11],> 100 microgram/ml
same,MIC,[12],25 microgram/ml
same,feed conversion improvement,[13],about 10 points
same,MIC,[14],1 microgram/ml
